Data from patent US11897862B2 (Gilead Sciences, Inc., priority 2022, dated 2024).

Legend:
Assay type in all cases: cell-based
IKZF2 [1] = molecular target: T1, IKZF2 (Homo sapiens, UniProt Q96SW2+Q9UKS7); assay: Human whole blood IKZF2 degradation (flow cytometry, CD4/CD25/Foxp3+ Treg cells); set-up: endogenous in cells; details: 24 hrs incubation, IKZF2 MFI in CD4/CD25/Foxp3+ Treg cells, flow cytometry; for DC50: read-out: IKZF2 EC50
Description: In vitro IKZF2 potency was assessed in human whole blood using a fluorescence activated cell sorting assay. 50 μL of freshly collected blood from healthy human volunteers was incubated with Immunocult CD3/CD28 activator (Stemcell Technologies) and solution of testing compounds (serially-diluted) for 24 hrs hours at 37° C. in 384 well plates. The treated red blood cells were removed by adding lysis buffer (BD cat #558049) then the cells were fixed, permeabilized, and stained with anti-CD4 (BD cat #564419), anti-Foxp3 (Invitrogen cat #48-4777-42), anti-IKZF1 (Cell Signaling Tech. cat #33462S), and anti-IKZF2(Cell Signaling Tech. cat #65432S) antibodies. The median fluorescent intensity (MFI) of IKZF2 signal from CD4/CD25/Foxp3+ Treg cells and MFI of IKZF1 signal from CD4+ T cells were quantified in the same samples by flow cytometry using an Attune instrument. EC50 and Dmax of each compound was determined by plotting the MFI and DMSO treated wells were used as control. Asterisks (*) indicate examples for which data represents an average of n≥3 repeat experiments.
Target sequence in this assay (Q9UKS7 whole entry): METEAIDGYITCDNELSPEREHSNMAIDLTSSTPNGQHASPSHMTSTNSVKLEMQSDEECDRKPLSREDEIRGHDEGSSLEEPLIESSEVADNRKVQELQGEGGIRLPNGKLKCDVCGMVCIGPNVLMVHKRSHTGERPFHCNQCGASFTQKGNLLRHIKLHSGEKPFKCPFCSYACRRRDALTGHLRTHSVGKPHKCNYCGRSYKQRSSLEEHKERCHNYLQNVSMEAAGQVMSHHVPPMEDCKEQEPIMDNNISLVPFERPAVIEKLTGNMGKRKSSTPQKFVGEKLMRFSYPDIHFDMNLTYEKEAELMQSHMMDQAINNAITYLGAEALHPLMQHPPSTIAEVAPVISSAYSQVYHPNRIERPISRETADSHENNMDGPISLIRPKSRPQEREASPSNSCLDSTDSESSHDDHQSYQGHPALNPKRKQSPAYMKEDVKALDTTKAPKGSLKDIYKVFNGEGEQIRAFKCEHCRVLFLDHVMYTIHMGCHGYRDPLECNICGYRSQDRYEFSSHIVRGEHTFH
Target sequence in this assay (Q96SW2 whole entry): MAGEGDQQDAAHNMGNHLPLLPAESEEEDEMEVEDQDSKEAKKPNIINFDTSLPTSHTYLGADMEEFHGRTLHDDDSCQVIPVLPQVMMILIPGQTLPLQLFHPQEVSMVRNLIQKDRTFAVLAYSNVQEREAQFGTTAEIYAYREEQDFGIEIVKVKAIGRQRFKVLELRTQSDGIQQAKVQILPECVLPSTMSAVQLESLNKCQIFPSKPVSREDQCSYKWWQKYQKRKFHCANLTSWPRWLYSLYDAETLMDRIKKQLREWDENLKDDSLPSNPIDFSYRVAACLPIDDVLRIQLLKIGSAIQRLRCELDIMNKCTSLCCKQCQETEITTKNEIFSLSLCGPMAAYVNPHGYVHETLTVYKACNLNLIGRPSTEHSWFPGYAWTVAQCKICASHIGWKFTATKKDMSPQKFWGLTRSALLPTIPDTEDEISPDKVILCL
Target sequence in this assay (Q16531 whole entry partner): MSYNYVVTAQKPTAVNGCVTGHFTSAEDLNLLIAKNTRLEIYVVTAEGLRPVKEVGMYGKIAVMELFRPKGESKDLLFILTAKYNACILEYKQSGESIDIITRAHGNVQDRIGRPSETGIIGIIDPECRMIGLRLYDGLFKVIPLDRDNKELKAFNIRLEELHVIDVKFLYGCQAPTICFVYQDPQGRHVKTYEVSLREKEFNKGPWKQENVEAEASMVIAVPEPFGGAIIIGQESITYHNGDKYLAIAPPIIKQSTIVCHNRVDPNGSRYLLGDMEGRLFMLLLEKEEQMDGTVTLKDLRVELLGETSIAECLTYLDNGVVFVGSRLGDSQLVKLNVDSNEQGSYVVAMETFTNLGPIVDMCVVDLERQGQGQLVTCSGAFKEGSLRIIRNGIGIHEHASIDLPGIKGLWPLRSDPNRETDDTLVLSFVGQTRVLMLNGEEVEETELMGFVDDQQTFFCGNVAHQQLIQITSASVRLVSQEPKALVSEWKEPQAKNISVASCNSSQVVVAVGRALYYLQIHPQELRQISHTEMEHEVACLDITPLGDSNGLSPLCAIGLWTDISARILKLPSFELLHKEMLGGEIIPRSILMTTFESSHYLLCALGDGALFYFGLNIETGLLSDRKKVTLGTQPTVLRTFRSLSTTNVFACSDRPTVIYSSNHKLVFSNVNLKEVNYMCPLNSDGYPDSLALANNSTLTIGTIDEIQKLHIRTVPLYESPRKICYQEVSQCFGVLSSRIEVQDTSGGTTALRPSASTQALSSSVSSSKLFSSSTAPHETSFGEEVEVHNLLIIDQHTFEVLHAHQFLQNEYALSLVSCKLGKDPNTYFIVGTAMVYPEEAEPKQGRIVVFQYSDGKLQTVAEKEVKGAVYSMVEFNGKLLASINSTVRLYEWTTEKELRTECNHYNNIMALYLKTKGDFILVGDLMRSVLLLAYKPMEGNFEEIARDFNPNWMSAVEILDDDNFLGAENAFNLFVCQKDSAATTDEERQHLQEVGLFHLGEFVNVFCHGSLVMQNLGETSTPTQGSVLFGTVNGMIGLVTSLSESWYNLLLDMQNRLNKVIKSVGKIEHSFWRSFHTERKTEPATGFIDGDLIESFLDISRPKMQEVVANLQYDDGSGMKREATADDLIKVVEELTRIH

IKZF1 = molecular target: T2, IKZF1 (Homo sapiens, UniProt Q13422+Q96SW2); assay: HEK293 HiBiT in vitro degradation of IKZF1; details: for Dmax: HEK293, HEK293 HiBiT; for Dmax / IKZF1 Dmax: maximum degradation at the highest concentration tested; for DC50 / IKZF1 Dmax: HEK293 HiBiT; for DC50: 18-24 hr incubation, normalized to DMSO control, read-out: IKZF1 EC50
T2 construct: expressed in transfected cells
Method in brief: (§1)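 Read-out: Nano-Glo lytic HiBiT luminescence after 18-24 h compound exposure at 37 °C, fitted to EC50 and Dmax. Cells were Flp-In T-REx HEK293 expressing linker-HiBiT fused to the C-terminus of each target, doxycycline-induced ([…] final) overnight beforehand.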

IKZF2 [2] = molecular target: T1, IKZF2; assay: HEK293 HiBiT in vitro degradation of IKZF2; set-up: expressed in transfected cells; details: for Dmax: HEK293, HEK293 HiBiT; for Dmax / IKZF2 Dmax: maximum degradation at the highest concentration tested; for DC50 / IKZF2 Dmax: HEK293 HiBiT; for DC50: 18-24 hr incubation, normalized to DMSO control, read-out: IKZF2 EC50
Method in brief: as §1
Target sequence in this assay (Q9UKS7 1-500 isoform Q9UKS7-2): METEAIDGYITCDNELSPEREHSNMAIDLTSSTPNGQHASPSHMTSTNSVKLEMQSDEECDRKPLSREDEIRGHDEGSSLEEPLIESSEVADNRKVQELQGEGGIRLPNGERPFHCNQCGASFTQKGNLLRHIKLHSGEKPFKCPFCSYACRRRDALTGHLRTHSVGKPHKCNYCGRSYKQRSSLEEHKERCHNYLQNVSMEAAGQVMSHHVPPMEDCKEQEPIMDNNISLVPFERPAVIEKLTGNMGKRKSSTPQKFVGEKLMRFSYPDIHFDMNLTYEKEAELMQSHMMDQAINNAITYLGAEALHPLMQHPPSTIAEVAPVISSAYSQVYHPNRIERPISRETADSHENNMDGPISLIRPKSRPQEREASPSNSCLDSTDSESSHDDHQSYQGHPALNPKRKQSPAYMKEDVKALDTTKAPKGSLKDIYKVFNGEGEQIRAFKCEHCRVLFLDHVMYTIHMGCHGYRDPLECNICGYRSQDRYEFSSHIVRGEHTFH
Target sequence in this assay (Q96SW2 whole entry): as the sequence (Q96SW2 whole entry) above
Target sequence in this assay (Q16531 whole entry partner): as the sequence (Q16531 whole entry partner) above

T2 sequence (Q13422 whole entry): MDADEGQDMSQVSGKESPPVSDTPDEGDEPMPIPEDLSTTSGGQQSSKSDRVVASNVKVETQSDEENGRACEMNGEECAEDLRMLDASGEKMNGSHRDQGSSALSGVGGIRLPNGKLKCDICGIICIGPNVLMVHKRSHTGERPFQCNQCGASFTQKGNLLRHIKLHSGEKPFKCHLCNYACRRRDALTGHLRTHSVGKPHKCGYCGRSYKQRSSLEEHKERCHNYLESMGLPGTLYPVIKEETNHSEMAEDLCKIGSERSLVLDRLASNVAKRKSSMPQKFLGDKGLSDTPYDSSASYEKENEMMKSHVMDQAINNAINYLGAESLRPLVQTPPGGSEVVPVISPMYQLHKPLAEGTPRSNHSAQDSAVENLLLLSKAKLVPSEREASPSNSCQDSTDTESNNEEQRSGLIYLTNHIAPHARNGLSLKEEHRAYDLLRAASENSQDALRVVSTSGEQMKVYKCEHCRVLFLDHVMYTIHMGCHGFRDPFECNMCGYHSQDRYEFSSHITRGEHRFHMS
T2 sequence (Q96SW2 whole entry): as the sequence (Q96SW2 whole entry) above
T2 sequence (Q16531 whole entry partner): as the sequence (Q16531 whole entry partner) above

Row | Structure (SMILES) | Dmax (IKZF2 [1]) [%] | DC50 (IKZF2 [1]) [nM] | Dmax (IKZF1) [%] | DC50 (IKZF1) [nM] | Dmax (IKZF2 [2]) [%] | DC50 (IKZF2 [2]) [nM] | IKZF2 Dmax (IKZF2 [1]) [%] | IKZF1 Dmax (IKZF1) [%] | IKZF2 Dmax (IKZF2 [2]) [%]
1 | CC(C)(C)CCN[C@H]1CCCC[C@@H]1Cc1ccc2c(c1F)CN(C1CCC(=O)NC1=O)C2=O (stereo partly drawn) [Example 89, 3-(5-(((1R,2S)-2-((3,3-dimethylbutyl)amino)cyclohexyl)methyl)-4-fluoro-1-oxoisoindolin-2-yl)piperidine-2,6-dione] | 97 | 5 | 28 | 64 | 97 | 6 |  |  | 
2 | O=C1CCC(N2Cc3cc(C[C@H]4OCCC[C@@H]4NC4CCCCC4)ccc3C2=O)C(=O)N1 (stereo partly drawn) [Example 95, 3-(5-(((2R,3S)-3-(cyclohexylamino)tetrahydro-2H-pyran-2-yl)methyl)-1-oxoisoindolin-2-yl)piperidine-2,6-dione] | 89 | 11 |  | > 10000 | 88 | 16 |  |  | 
3 | O=C1CCC(N2Cc3cc(C[C@H]4CCCC[C@@H]4NC4CC5(C4)CC(F)(F)C5)ccc3C2=O)C(=O)N1 (some centres unmarked) [Example 101] | 95 | 6 | 32 | 39 | 98 | 5 |  |  | 
4 | CC(N[C@H]1CCCC[C@@H]1Cc1ccc2c(c1)CN(C1CCC(=O)NC1=O)C2=O)C1CCC1 (some centres unmarked) [Example 103] | 96 | 4 |  | > 1000 | 95 | 3 |  |  | 
5 | O=C1CCC(N2Cc3c(ccc(C[C@H]4CCCC[C@@H]4NCC4COC4)c3F)C2=O)C(=O)N1 (some centres unmarked) [Example 114] | 98 | 5 | 28 | 88 | 98 | 8 |  |  | 
6 | O=C1CCC(N2Cc3c(ccc(C[C@H]4CCCC[C@@H]4NCC4CCOCC4)c3F)C2=O)C(=O)N1 (some centres unmarked) [Example 115] | 90 | 6 | 37 | 78 | 96 | 8 |  |  | 
7 | CN(C1CCC(F)(F)CC1)[C@H]1CCCC[C@@H]1Cc1ccc2c(c1F)CN(C1CCC(=O)NC1=O)C2=O (some centres unmarked) [Example 124] | 91 | 23 |  | > 10000 | 94 | 16 |  |  | 
8 | CC(C)CCN[C@H]1CCCC[C@@H]1Cc1ccc2c(c1)CN(C1CCC(=O)NC1=O)C2=O (some centres unmarked) [Example 129] | 91 | 9 | 25 | 93 | 95 | 13 |  |  | 
9 | O=C1CCC(N2Cc3cc(C[C@H]4CCCC[C@@H]4NC4CC5(CCC(F)(F)CC5)C4)ccc3C2=O)C(=O)N1 (some centres unmarked) [Example 142] | 94 | 5 | 33 | 74 | 95 | 5 |  |  | 
10 | O=C1CCC(N2Cc3c(ccc(C[C@H]4OCCC[C@@H]4NC4CCCC4)c3F)C2=O)C(=O)N1 (some centres unmarked) [Example 148] | 92 | 6 |  | > 1000 | 94 | 7 |  |  | 
11 | C[C@]1(O)CC[C@H](NC2CCC(F)(F)CC2)[C@@H](Cc2ccc3c(c2)CN(C2CCC(=O)NC2=O)C3=O)C1 (some centres unmarked) [Example 155] | 91 | 12 | 27 | 226 | 97 | 30 |  |  | 
12 | COC1CCC(N[C@H]2CCCO[C@@H]2Cc2ccc3c(c2F)CN(C2CCC(=O)NC2=O)C3=O)CC1 (some centres unmarked) [Example 159] | 94 | 5 |  | > 1000 | 100 | 6 |  |  | 
13 | CC(N[C@H]1CCCC[C@@H]1Cc1ccc2c(c1)CN(C1CCC(=O)NC1=O)C2=O)C1(C)CCC1 (some centres unmarked) [Example 206] | 101 | 10 |  | > 1000 | 95 | 6 |  |  | 
14 | CC1(C)CC(N[C@H]2CCCC[C@@H]2Cc2ccc3c(c2)CN(C2CCC(=O)NC2=O)C3=O)CC(C)(C)O1 (some centres unmarked) [Example 208] | 97 | 3 | 26 | 76 | 98 | 2 |  |  | 
15 | [2H]C1(N[C@H]2CCCC[C@@H]2Cc2ccc3c(c2)CN(C2CCC(=O)NC2=O)C3=O)CC(C)(C)C1 (some centres unmarked) [Example 214] | 98 | 3 | 22 | 65 | 96 | 5 |  |  | 
16 | CC(N[C@H]1CCCC[C@@H]1Cc1ccc2c(c1)CN(C1CCC(=O)NC1=O)C2=O)C1CCC1 (some centres unmarked) [Example 219] |  | 10 |  | > 1000 |  | 6 | 97 |  | 95
17 | CC(CC(C)(C)C)N[C@H]1CCCC[C@@H]1Cc1ccc2c(c1)CN(C1CCC(=O)NC1=O)C2=O (some centres unmarked) [Example 220] | 98 | 3 |  | > 1000 |  | 2 |  |  | 96
18 | CC(CC(C)(C)C)N[C@H]1CCCC[C@@H]1Cc1ccc2c(c1)CN(C1CCC(=O)NC1=O)C2=O (some centres unmarked) [Example 221] |  | 4 |  | > 1000 |  | 2 | 101 |  | 98

Further compounds by falling DC50 (IKZF2 [1]), results first:

Row | Dmax (IKZF2 [1]) [%] | DC50 (IKZF2 [1]) [nM] | Dmax (IKZF1) [%] | DC50 (IKZF1) [nM] | Dmax (IKZF2 [2]) [%] | DC50 (IKZF2 [2]) [nM] | IKZF2 Dmax (IKZF2 [1]) [%] | IKZF1 Dmax (IKZF1) [%] | IKZF2 Dmax (IKZF2 [2]) [%] | Structure (SMILES)
19 |  | 3 |  | 163 |  | 5 | 98 | 32 | 96 | CC1(C)CC(N[C@H]2CCCC[C@@H]2Cc2ccc3c(c2)CN(C2CCC(=O)NC2=O)C3=O)CCO1 (some centres unmarked) [Example 110]
20 | 91 | 3 | 26 | 126 | 96 | 17 |  |  |  | O=C1CCC(N2Cc3cc(C[C@H]4CCCC[C@@H]4NC4CC5(CCOCC5)C4)ccc3C2=O)C(=O)N1 (some centres unmarked) [Example 125]
21 | 96 | 3 |  | > 1000 | 98 | 4 |  |  |  | CC(N[C@H]1CCCC[C@@H]1Cc1ccc2c(c1)CN(C1CCC(=O)NC1=O)C2=O)C12CC(C1)C2 (some centres unmarked) [Example 138]
22 | 98 | 3 | 23 | 60 | 97 | 3 |  |  |  | O=C1CCC(N2Cc3cc(C[C@H]4CCCC[C@@H]4NC4CCCCCC4)ccc3C2=O)C(=O)N1 (some centres unmarked) [Example 196]
23 | 92 | 2 | 54 | 46 | 98 | 2 |  |  |  | [2H]C1(N[C@H]2CCCC[C@@H]2Cc2ccc3c(c2)CN(C2CCC(=O)NC2=O)C3=O)CCC(F)(F)CC1 (some centres unmarked) [Example 119]
24 | 89 | 2 |  | 85 |  | 3 |  | 44 | 97 | O=C1CCC(N2Cc3cc(C[C@H]4CCCC[C@@H]4NC4CCC(C(F)F)CC4)ccc3C2=O)C(=O)N1 (some centres unmarked) [Example 217]
25 | 97 | 1 | 34 | 103 | 96 | 5 |  |  |  | CC1(C)CC(N[C@H]2CCCC[C@@H]2Cc2ccc3c(c2)CN(C2CCC(=O)NC2=O)C3=O)CCO1 (some centres unmarked) [Example 109]
26 | 92 | 1 | 46 | 39 | 97 | 2 |  |  |  | O=C1CCC(N2Cc3c(ccc(C[C@H]4CCCC[C@@H]4NC4CCOC4)c3F)C2=O)C(=O)N1 (some centres unmarked) [Example 117]
27 |  | 1 |  | 57 |  | 2 | 91 | 44 | 97 | O=C1CCC(N2Cc3c(ccc(C[C@H]4CCCC[C@@H]4NC4CCOC4)c3F)C2=O)C(=O)N1 (some centres unmarked) [Example 118]
